Data on 2 molecules can be found in PubChem BioAssay (NCI).

Test systems include COLO 205 colon; DU-145 prostate; PC-3 prostate; KM12 colon; NCI-H226 lung; U251 CNS; EKVX NSCLC; OVCAR-5 ovarian; NCI-H460 lung; HT29 colon; OVCAR-8 ovarian; ACHN renal; SNB-75 CNS; TK-10 renal; SN12C renal; K-562 leukemia; OVCAR-4 ovarian; T-47D breast; CAKI-1 renal; SW-620 colon; MDA-MB-231 breast; CCRF-CEM leukemia; IGROV1 ovarian; SK-MEL-5 melanoma; SNB-19 CNS; MOLT-4 leukemia; SK-OV-3 ovarian; BT-549 breast; HS 578T breast; SR leukemia; SK-MEL-28 melanoma; HCC-2998 colon; MCF7 breast; A549 NSCLC; OVCAR-3 ovarian; HOP-62 NSCLC; HCT-15 colon; UO-31 renal; SF-295 CNS; RPMI-8226 leukemia; NCI-H23 lung.

Common to all, as to test: inhibition of tumour cell growth, NCI panel, 48 h

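How tested: cells in 96-well plates exposed to compound for 48 hours at five concentrations. At the TGI there is no net growth.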 Where only a bound is given, the exact number is not on record here.

Take `CC1(C)C[C@H]2C=C(C=O)[C@]34C[C@]3(C(=O)OC4O)[C@H]2C1` (stereo partly specified): the TGI in the test on COLO 205 colon was determined as 1.44 µM; in the test on DU-145 prostate it was 16.5 µM; in the test on PC-3 prostate, 8.74 µM; in the test on KM12 colon, 5.6 µM; in the test with NCI-H226 lung it was 26.9 µM; in the test on U251 CNS, 51.7 µM. The TGI is 4.34 µM with EKVX NSCLC; 5.14 µM in the test on OVCAR-5 ovarian; 53.4 µM in the test on NCI-H460 lung; 4.96 µM with HT29 colon; 3.67 µM with OVCAR-8 ovarian; 8.07 µM in the test on ACHN renal. Also, the TGI is 6.87 µM with SNB-75 CNS; 4.53 µM in the test on TK-10 renal; over 100 µM in the test on SN12C renal; over 100 µM in the test on K-562 leukemia; 7.86 µM with OVCAR-4 ovarian; 4.63 µM with T-47D breast. Further, the TGI was 5.04 µM in the test on CAKI-1 renal; over 100 µM with SW-620 colon; 6.47 µM in the test on MDA-MB-231 breast; over 100 µM with CCRF-CEM leukemia; 9.75 µM in the test with IGROV1 ovarian; 9.32 µM in the test with SK-MEL-5 melanoma. For the same molecule, the TGI in the test with SNB-19 CNS was over 100 µM; with MOLT-4 leukemia, over 100 µM; with SK-OV-3 ovarian, 50.3 µM; with BT-549 breast it was 4.56 µM; with HS 578T breast, over 100 µM; in the test on SR leukemia, over 100 µM. Moreover, the TGI in the test on SK-MEL-28 melanoma came to 9.4 µM; in the test on HCC-2998 colon, 12.3 µM; in the test with MCF7 breast, 5.54 µM; in the test on A549 NSCLC, 13.1 µM; in the test with OVCAR-3 ovarian, 8.47 µM; with HOP-62 NSCLC it was 45.1 µM. Also, the TGI in the test on HCT-15 colon was 4.7 µM; in the test on UO-31 renal it was 6.92 µM; with SF-295 CNS it was 23.9 µM; in the test on RPMI-8226 leukemia it was over 100 µM.

As to `COc1cc2nc(N3CCN(C(=O)c4ccco4)CC3)nc(N)c2cc1OC`, the TGI with NCI-H23 lung is 27.1 µM.
